Source: patent US20250059188A1, “ARYLSULPHONAMIDE COMPOUNDS” (Anaxis Pharma Pty Ltd, priority 2021, published 2025)
pIC50: −log10 of the molar value.

Tested on: Immortalised Mouse Dermal Fibroblasts (MDFs)
Assay: Inhibition of TSI induced necroptosis in mouse dermal fibroblasts (CellTitre-Glo)
Details: Mus musculus, Fibroblast, 3 h, MDF cells, TSI cocktail (TNF, Smac mimetic, IDN-6556), read-out: Inhibition of TSI-induced necroptosis (IC50 cell-based assay) in MDF
Description: Cellular Assay: Screening Compounds for Inhibition of TSI Induced Necroptosis in, 384 well plate format. • Cell Line ID: Immortalised Mouse Dermal Fibroblasts (MDFs). • Cell Concentration (cells/well): Final cell density is 2200 cells per well. • Cell growth medium: DMEM medium+7.4% Fetal Bovine Serum (FBS). Cells are cultured in Corning 150 cm^2 tissue culture flasks with vented caps at 37° C./10% CO2. • Incubation: Plates were incubated for 30 minutes following addition of compounds and then 3 hours incubation with death stimuli (TSI cocktail) at 37° C./10% CO2 in a humidified incubator. • Compound concentration: 36 μM starting concentration, 1:3 dilution, 10 point • DMSO final concentration (% v/v): 0.3%. Compounds in TSI Cocktail (T: TNF; S: Smac Mimetic; I: IDN-6556) and their Final Concentrations: • rhTNF (100 ng/ml) • Compound A (500 nM)—Smac mimetic, Tetralogic and SYNthesis med chem • IDN-6556 (10 μM)—Selleckchem (S7775)
The cellular assay was carried out according to the following steps: • 1. Each well was prepared by sequential addition of: • a. 40 μL of cell suspension (5.5×10^4 cells/mL) was added to each well to provide a final cell concentration of 2,200 cells per well. • b. After 24 hours, DMSO (control; columns 1-2 and 23-24) or compound in DMSO—addition was performed using acoustic transfer of nL volumes of stock compound to give final test concentrations of 36, 12, 4, 1.3, 0.44, 0.148, 0.049, 0.016, 0.005 and 0.002 μM. All wells were backfilled with DMSO to a final total volume in the well of 100 nL. • c. Following compound/DMSO addition in step (b), Plates were incubated for 30 minutes at 37° C./10% CO2 in a humidified incubator and then 10 μL of 5×TSI cocktail (except to positive controls; columns 2 and 24) was added to each well. • 2. After 3 hours, plate was removed from the 37° C. incubator and equilibrated to room temperature for 15 minutes. • 3. 15 μL of room temperature CellTitre-Glo2™ (Promega™) was added to each well. • 4. Shook plates for 2 minutes (˜600 rpm) and incubated at room temperature for 15 minutes to allow signal to stabilise. • 5. Read luminescence readout on a plate reader.
Percent viability was calculated for each compound according to equation (2): […]
10 point titration curves were fitted with the 4 parameter logistic nonlinear regression model and the IC50 reported reflect the inflection point of the curve for curve fitting.
• Assay involving the TSI cocktail (T: TNF; S: Smac mimetic; I: IDN-6556): TSI treatment ensures that cells specifically undergo necroptotic cell death. TNF activates the TNF receptor, Smac mimetic directs the signal away from proinflammatory signaling and toward the RIPK1/RIPK3-mediated cell death pathways, and IDN-6556 (Caspase inhibitor) ensures that the apoptotic response is blocked leaving only the programmed necrosis response. The compounds' activity (solution in DMSO) tested in this TSI-induced assay was evaluated by determining the number of viable cells in culture by measuring the amount of ATP present as measured by CelltiterGlo.

SMILES	pIC50
C[C@H](Oc1cc(-c2nn(C)c3c(-c4cnn(C5CCN(C)C(C)(C)C5)c4)cnc(N)c23)ccc1NS(=O)(=O)C(F)F)c1ccc(F)cc1 (single isomer, unassigned) [Compound 113]	6.00 to 7.00
C[C@H](Oc1cc(-c2nn(C)c3c(-c4cnn(C5CCN(C)C(C)(C)C5)c4)cnc(N)c23)ccc1NS(=O)(=O)C(F)F)c1ccc(F)cc1 (single isomer, unassigned) [Compound 154, N-(4-(4-amino-1-methyl-7-(1-((R*)-1,2,2-trimethylpiperidin-4-yl)-1H-pyrazol-4-yl)-1H-pyrazolo[4,3-c]pyridin-3-yl)-2-((S)-1-(4-fluorophenyl)ethoxy)phenyl)-1,1-difluoromethanesulfonamide]	> 7.00
C[C@H](Oc1cc(-c2nn(C)c3c(-c4cnn(C5CCN(C)C6(CC6)C5)c4)cnc(N)c23)ccc1NS(=O)(=O)C(F)F)c1ccc(F)cc1 (single isomer, unassigned) [Compound 170, N-(4-(4-amino-1-methyl-7-(1-((S*)-4-methyl-4-azaspiro[2.5]octan-7-yl)-1H-pyrazol-4-yl)-1H-pyrazolo[4,3-c]pyridin-3-yl)-2-((S)-1-(4-fluorophenyl)ethoxy)phenyl)-1,1-difluoromethanesulfonamide]	> 7.00
COCCn1cc(-c2cnc(N)c3c(-c4ccc(NS(=O)(=O)C(F)F)c(O[C@@H](C)c5ccc(F)cc5)c4)nn(C)c23)cn1 [Compound 29, (S)-N-(4-(4-amino-7-(1-(2-methoxyethyl)-1H-pyrazol-4-yl)-1-methyl-1H-pyrazolo[4,3-c]pyridin-3-yl)-2-(1-(4-fluorophenyl)ethoxy)phenyl)-1,1-difluoromethanesulfonamide]	5.00 to 6.00
C[C@H](Oc1cc(-c2nn(C)c3c(-c4cnn(C5CCCC5)c4)cnc(N)c23)ccc1NS(=O)(=O)C(F)F)c1ccc(F)cc1 [Compound 30, (S)-N-(4-(4-amino-7-(1-cyclopentyl-1H-pyrazol-4-yl)-1-methyl-1H-pyrazolo[4,3-c]pyridin-3-yl)-2-(1-(4-fluorophenyl)ethoxy)phenyl)-1,1-difluoromethanesulfonamide]	5.00 to 6.00
C[C@H](Oc1cc(-c2nn(C)c3c(-c4cnn(C5CCN(C)CC5)c4)cnc(N)c23)ccc1NS(=O)(=O)C(F)F)c1ccc(F)cc1 [Compound 46, (S)-N-(4-(4-amino-1-methyl-7-(1-(1-methylpiperidin-4-yl)-1H-pyrazol-4-yl)-1H-pyrazolo[4,3-c]pyridin-3-yl)-2-(1-(4-fluorophenyl)ethoxy)phenyl)-1,1-difluoromethanesulfonamide]	6.00 to 7.00
C[C@H](Oc1cc(-c2nn(C)c3c(C#CC4CCNCC4)cnc(N)c23)ccc1NS(=O)(=O)C(F)F)c1ccc(F)cc1 [Compound 79, (S)—N-(4-(4-amino-1-methyl-7-(piperidin-4-ylethynyl)-1H-pyrazolo[4,3-c]pyridin-3-yl)-2-(1-(4-fluorophenyl)ethoxy)phenyl)-1,1-difluoromethanesulfonamide]	5.00 to 6.00
C[C@H](Oc1cc(-c2nn(C)c3c(C#CC4CCN(C)CC4)cnc(N)c23)ccc1NS(=O)(=O)C(F)F)c1ccc(F)cc1 [Compound 80, (S)—N-(4-(4-amino-1-methyl-7-((1-methylpiperidin-4-yl)ethynyl)-1H-pyrazolo[4,3-c]pyridin-3-yl)-2-(1-(4-fluorophenyl)ethoxy)phenyl)-1,1-difluoromethanesulfonamide]	6.00 to 7.00
CC(C)N(C)C(=O)C(C)n1cc(-c2cnc(N)c3c(-c4ccc(NS(=O)(=O)C(F)F)c(O[C@@H](C)c5ccc(F)cc5)c4)nn(C)c23)cn1 (stereo partly drawn) [Compound 81, 2-(4-(4-amino-3-(4-((difluoromethyl)sulfonamido)-3-((S)-1-(4-fluorophenyl)ethoxy)phenyl)-1-methyl-1H-pyrazolo[4,3-c]pyridin-7-yl)-1H-pyrazol-1-yl)-N-isopropyl-N-methylpropanamide]	5.00 to 6.00
C[C@H](Oc1cc(-c2nn(C)c3c(-c4cnn(C(C)(C)CO)c4)cnc(N)c23)ccc1NS(=O)(=O)C(F)F)c1ccc(F)cc1 [Compound 97, (S)-N-(4-(4-amino-7-(1-(1-hydroxy-2-methylpropan-2-yl)-1H-pyrazol-4-yl)-1-methyl-1H-pyrazolo[4,3-c]pyridin-3-yl)-2-(1-(4-fluorophenyl)ethoxy)phenyl)-1,1-difluoromethanesulfonamide]	5.00 to 6.00
C[C@H](Oc1cc(-c2nn(C)c3c(-c4cnn(C5(CC#N)COC5)c4)cnc(N)c23)ccc1NS(=O)(=O)C(F)F)c1ccc(F)cc1 [Compound 98, (S)-N-(4-(4-amino-7-(1-(3-(cyanomethyl)oxetan-3-yl)-1H-pyrazol-4-yl)-1-methyl-1H-pyrazolo[4,3-c]pyridin-3-yl)-2-(1-(4-fluorophenyl)ethoxy)phenyl)-1,1-difluoromethanesulfonamide]	5.00 to 6.00
C[C@H](Oc1cc(-c2nn(C)c3c(-c4cnn(C5CC6(C5)CN(C)C6)c4)cnc(N)c23)ccc1NS(=O)(=O)C(F)F)c1ccc(F)cc1 [Compound 99, (S)-N-(4-(4-amino-1-methyl-7-(1-(2-methyl-2-azaspiro[3.3]heptan-6-yl)-1H-pyrazol-4-yl)-1H-pyrazolo[4,3-c]pyridin-3-yl)-2-(1-(4-fluorophenyl)ethoxy)phenyl)-1,1-difluoromethanesulfonamide]	5.00 to 6.00
[2H]C([2H])([2H])N1CCC(n2cc(-c3cnc(N)c4c(-c5ccc(NS(=O)(=O)C(F)F)c(O[C@@H](C)c6ccc(F)cc6)c5)nn(C)c34)cn2)CC1 [Compound 103]	5.00 to 6.00
C[C@H](Oc1cc(-c2nn(C)c3c(-c4cnn(C5CCC(C)(C)N(C)C5)c4)cnc(N)c23)ccc1NS(=O)(=O)C(F)F)c1ccc(F)cc1 (stereo partly shown) [Compound 104, N-(4-{4-amino-1-methyl-7-[1-(1,6,6-trimethylpiperidin-3-yl)-1H-pyrazol-4-yl]-1H-pyrazolo[4,3-c]pyridin-3-yl}-2-[(1 S)-1-(4-fluorophenyl)ethoxy]phenyl)-1,1-difluoromethanesulfonamide]	6.00 to 7.00
CC(=O)N1CCC(n2cc(-c3cnc(N)c4c(-c5ccc(NS(=O)(=O)C(F)F)c(O[C@@H](C)c6ccc(F)cc6)c5)nn(C)c34)cn2)CC1 [Compound 109, (S)—N-(4-(7-(1-(1-acetylpiperidin-4-yl)-1H-pyrazol-4-yl)-4-amino-1-methyl-1H-pyrazolo[4,3-c]pyridin-3-yl)-2-(1-(4-fluorophenyl)ethoxy)phenyl)-1,1-difluoromethanesulfonamide]	6.00 to 7.00
C[C@H](Oc1cc(-c2nn(C)c3c(-c4cnn(CC(F)(F)F)c4)cnc(N)c23)ccc1NS(=O)(=O)C(F)F)c1ccc(F)cc1 [Compound 116, (S)-N-(4-(4-amino-1-methyl-7-(1-(2,2,2-trifluoroethyl)-1H-pyrazol-4-yl)-1H-pyrazolo[4,3-c]pyridin-3-yl)-2-(1-(4-fluorophenyl)ethoxy)phenyl)-1,1-difluoromethanesulfonamide]	5.00 to 6.00
C[C@H](Oc1cc(-c2nn(C)c3c(-c4cnn(C5CCC(F)(F)C5)c4)cnc(N)c23)ccc1NS(=O)(=O)C(F)F)c1ccc(F)cc1 (stereo partly drawn) [Compound 120, N-(4-{4-amino-7-[1-(3,3-difluorocyclopentyl)-1H-pyrazol-4-yl]-1-methyl-1H-pyrazolo[4,3-c]pyridin-3-yl}-2-[(1S)-1-(4-fluorophenyl)ethoxy]phenyl)-1,1-difluoromethanesulfonamide]	5.00 to 6.00
C[C@@H](Oc1cc(-c2nn(C)c3c(-c4cnn(C5CCOCC5)c4)cnc(N)c23)ccc1NS(=O)(=O)C(F)F)c1ccc(F)cc1 [Compound 121, (R)-N-(4-(4-amino-1-methyl-7-(1-(tetrahydro-2H-pyran-4-yl)-1H-pyrazol-4-yl)-1H-pyrazolo[4,3-c]pyridin-3-yl)-2-(1-(4-fluorophenyl)ethoxy)phenyl)-1,1-difluoromethanesulfonamide]	5.00 to 6.00
C[C@H](Oc1cc(-c2nn(C)c3c(-c4cnn(C5CCOCC5)c4)cnc(N)c23)ccc1NS(=O)(=O)C(F)F)c1cccc(Cl)c1 [Compound 122, (S)-N-(4-(4-amino-1-methyl-7-(1-(tetrahydro-2H-pyran-4-yl)-1H-pyrazol-4-yl)-1H-pyrazolo[4,3-c]pyridin-3-yl)-2-(1-(3-chlorophenyl)ethoxy)phenyl)-1,1-difluoromethanesulfonamide]	5.00 to 6.00
